# Data: paper PMC6273899 (Molecules, 2016)
# “And” between values parts separate entries of the source, which are not always exact repeats. Equal values may be shown once. Read-outs that look alike come from different tables or passages of the source. Square brackets hold non-standard residues; d marks the D form. Ends that are not written are not given here. Peptide text beside a SMILES is read from it.
# Tests used:
# [1] = tested on: Escherichia coli (NCTC 10418); format: cell-based
# Experimental: (§1) The antimicrobial activity was evaluated by minimal inhibitory concentration (MIC) and minimum bactericidal concentration (MBC) assays using broth microdilution methods and in vitro assays against reference strains of microorganisms; a Gram-positive bacterium, a Gram-negative bacterium, and a yeast, respectively, Staphylococcus aureus (NCTC 10788), Escherichia coli (NCTC 10418), and Candida albicans (NCPF 1467). Briefly, the reference strains were incubated in Muller-Hinton Broth (MHB) until logarithmic phase growth was achieved which was assessed by the optical density (OD) of the culture at 550 nm. The cultures were subjected to dilution to obtain 1 × 10^6 colony-forming units (cfu)/mL for bacteria or to 5 × 10^5 cfu/ml for the yeast. Serial peptide dilutions and cultures were loaded into a 96-well microtiter plate obtaining suspensions containing 1–512 mg/L tested peptides. After incubating at 37 °C for 24 h, MIC values were determined as the lowest concentration which produced a similar OD value to the negative control (medium only). Then 10 μL of inhibited culture from each well was subcultured on Muller-Hinton Agar (MHA) and incubated for 24 h. The MBC values were defined as the minimum concentration which effected no growth.
# [2] = tested on: Candida albicans (NCPF 1467); format: cell-based
# Experimental: as §1
# [3] = tested on: Staphylococcus aureus (NCTC 10788); format: cell-based
# Experimental: as §1
# [4] = 25% horse serum/RPMI medium (v/v), 1 mg/mL peptide, 37 °C up to 72 h, MALDI-TOF/MS
# Experimental: (§2) Two different media were used to appraise the stability and degradation sites of peptides, trypsin, and horse serum, respectively. For the trypsin assay, 1 mg of trypsin (Sigma-Aldrich) with 1 mg of peptide were incubated in 1 mL PBS for 72 h. Whilst for horse serum, the medium was prepared with 25% horse serum/RPMI medium (v/v) and incubated at 37 °C for 15 min. Peptide stock solution was added into the serum medium to obtain a solution having a final concentration of 1 mg/mL and test samples were kept at 37 °C for 72 h. At different time points, 20 μL samples were transferred into 100 μL of 0.25% (v/v) TFA/water which caused reaction termination. For the serum-digestion, samples were kept at 4 °C and centrifuged at 13,000 rpm for 15 min and the supernatants were then analysed by MALDI-TOF/MS.
# [5] = tested on: trypsin; conditions: 1 mg trypsin with 1 mg peptide in 1 mL PBS, MALDI-TOF/MS
# Experimental: as §2
# [6] = tested on: defibrinated horse erythrocytes; test: Haemolysis assay; format: cell-based; conditions: 2% (v/v) horse erythrocytes in PBS, 1 to 512 mg/L peptide, 37 °C 120 min, OD 550 nm; 100% = 1% Triton X-100
# Experimental: The haemolytic activity of peptides against defibrinated horse erythrocytes (TCS Biosciences Ltd., Botolph Claydon, Buckingham, UK) was determined by comparing the degree of lysis after incubating tested peptides with prewashed red cell suspensions for 2 h. A 2% suspension (v/v) was formed with prewashed defibrinated horse erythrocytes and sodium phosphate-buffered saline (PBS). Peptides were incubated with this 2% suspension in a final concentration range from 1 to 512 mg/L and all the samples were kept at a constant 37 °C for 120 min. Negative controls and positive controls were PBS alone and PBS containing Triton X-100 (Sigma-Aldrich, St. Louis, MO, USA), respectively. The sample supernatants were used to assess the extent of haemolysis by measuring the OD value at 550 nm.
# [7] = tested on: trypsin; test: 1 mg of trypsin (Sigma-Aldrich) with 1 mg of peptide in 1 mL PBS; conditions: up to 72 h
# [8] = 25% horse serum/RPMI medium (v/v); conditions: 37 °C, up to 72 h
# [9] = 10 μL of inhibited culture subcultured on Muller-Hinton Agar, 24 h, minimum concentration with no growth
# [10] = broth microdilution, Muller-Hinton Broth, 1 × 10^6 cfu/mL, 1–512 mg/L peptide, 37 °C 24 h, OD read-out, NCTC 10418
# [11] = broth microdilution, Muller-Hinton Broth, 5 × 10^5 cfu/ml, 1–512 mg/L peptide, 37 °C 24 h, OD read-out, NCPF 1467
# [12] = broth microdilution, Muller-Hinton Broth, 1 × 10^6 cfu/mL, 1–512 mg/L peptide, 37 °C 24 h, OD read-out, NCTC 10788
molecule,measurement,setting,value
CC[C@H](C)[C@H](NC(=O)[C@H](C)NC(=O)[C@@H](CCCCN)NC(=O)[C@@H]1CCCN1C(=O)[C@@H](NC(=O)[C@H](CC(C)C)NC(=O)[C@H](CO)NC(=O)[C@H](CC(C)C)NC(=O)[C@@H](N)Cc1ccccc1)[C@@H](C)CC)C(=O)N[C@H](CCCCN)C(=O)N[C@@H](C)C(=O)N[C@H](C(=O)NCC(=O)N[C@H](C(=O)N[C@H](CCCCN)C(=O)N[C@@H](C)C(=O)N[C@H](CCCCN)C(=O)N[C@H](CCCCN)C(=O)N[C@@H](Cc1ccccc1)C(N)=O)C(C)C)C(C)C [PS-PT2a] (H-FLSLIP[dK]AI[dK]AVGV[dK]A[dK][dK]F-NH2),MBC E. coli,[1]; [9],>512 µg/mL
same,MIC E. coli,[1]; [10],>512 µg/mL
same,MBC C. albicans,[2]; [9],256 µg/mL
same,MIC C. albicans,[2]; [11],256 µg/mL
same,MBC S. aureus,[3]; [9],>512 µg/mL
same,MIC S. aureus,[3]; [12],>512 µg/mL
same,stability in serum (in words),[4]; pre-incubated 37 °C 15 min,relatively stable after 72 h
same,"Catabolites generated by incubation with trypsin (species detected, incl. intact 1–19)",[5]; up to 72 h,1–19 FLSLIPKAIKAVGVKAKKF
same,time stable in trypsin solution,[5]; up to 72 h,≥ 48 h
CC[C@H](C)[C@H](NC(=O)[C@H](C)NC(=O)[C@@H](CCCCN)NC(=O)[C@@H]1CCCN1C(=O)[C@@H](NC(=O)[C@H](CC(C)C)NC(=O)[C@H](CO)NC(=O)[C@H](CC(C)C)NC(=O)[C@@H](N)Cc1ccccc1)[C@@H](C)CC)C(=O)N[C@@H](CCCCN)C(=O)N[C@@H](C)C(=O)N[C@H](C(=O)NCC(=O)N[C@H](C(=O)N[C@@H](CCCCN)C(=O)N[C@@H](C)C(=O)N[C@@H](CCCCN)C(=O)N[C@@H](CCCCN)C(=O)N[C@@H](Cc1ccccc1)C(N)=O)C(C)C)C(C)C [PS-PT2b] (H-FLSLIP[dK]AIKAVGVKAKKF-NH2),MBC E. coli,[1]; [9],256 µg/mL
same,MIC E. coli,[1]; [10],256 µg/mL
same,MBC C. albicans,[2]; [9],64 µg/mL
same,MIC C. albicans,[2]; [11],32 µg/mL
same,MBC S. aureus,[3]; [9],512 µg/mL
same,MIC S. aureus,[3]; [12],256 µg/mL
same,"Catabolites generated by incubation with serum (species detected, incl. intact 1–19)",[4],1–17 […] and 1–19 FLSLIPKAIKAVGVKAKKF
same,"incubation time in serum after which fragments 1–15, 1–14 and 1–17 were observed",[4],> 48 h
same,stability in serum (in words),[4]; pre-incubated 37 °C 15 min,strong stability
same,degradation by trypsin (in words),[5]; up to 72 h,hydrolytically-degraded after a 30 s incubation
same,scissile site with trypsin,[5],Lys^10-Ala^11
FLSLIPHAIKAVGVHAKHF-NH2 [PS-PT1],MBC E. coli,"[1]; NCTC 10418, 24 h",>512 µg/mL
same,MIC E. coli,"[1]; NCTC 10418, 24 h",512 µg/mL
same,MBC C. albicans,"[2]; NCPF 1467, 24 h",256 µg/mL
same,MIC C. albicans,"[2]; NCPF 1467, 24 h",128 µg/mL
same,MBC S. aureus,"[3]; NCTC 10788, 24 h",256 µg/mL
same,MIC S. aureus,"[3]; NCTC 10788, 24 h",128 µg/mL
FLSLIPHAINAVGVHAKHF-NH2 [PS-PT],MBC E. coli,"[1]; NCTC 10418, 24 h",>512 µg/mL
same,MIC E. coli,"[1]; NCTC 10418, 24 h",>512 µg/mL
same,MBC C. albicans,"[2]; NCPF 1467, 24 h",>512 µg/mL
same,MIC C. albicans,"[2]; NCPF 1467, 24 h",512 µg/mL
same,MBC S. aureus,"[3]; NCTC 10788, 24 h",>512 µg/mL
same,MIC S. aureus,"[3]; NCTC 10788, 24 h",512 µg/mL
FLSLIPKAIKAVGVKAKKF-NH2 [PS-PT2] [listing 1 of 2 here],haemolytic effect (in words),[6],negligible haemolytic effects
same,MBC E. coli,[1]; [9],>512 µg/mL
same,MIC E. coli,[1]; [10],512 µg/mL
same,MBC C. albicans,[2]; [9],32 µg/mL
same,MIC C. albicans,[2]; [11],16 µg/mL
same,MBC S. aureus,[3]; [9],64 µg/mL
same,MIC S. aureus,[3]; [12],64 µg/mL
same,time after which peptide was completely degraded in serum,[4]; pre-incubated 37 °C 15 min,≤ 30 min
same,time in which the original peptide was completely cleaved by trypsin,[5]; up to 72 h,≤ 30 s
same,scissile site with trypsin,[5],Lys^7-Ala^8
FLSLIPKAIKAVGVKAKKF-NH2 [PS-PT2] [listing 2 of 2 here],cleaved bond,[7],"Lys7-Ala8, major, 30 s"
same,fragment found,[7],"1–17 FLSLIPKAIKAVGVKAK, 4 min"
same,cleaved bond,[8],"Lys7-Ala8, major"
same,fragment found,[8],"1–16 fragment (FLSLIPKAIKAVGVKA-), minor, 1 min"
FLSLIPKAIKAVGVKAKKF-NH2 [PS-PT2a],not cleaved,[7],stable in trypsin solution for up to 48 h
same,fragment found,[8],"2–7 fragments (LSLIPK), minor, 4 h"
FLSLIPKAIKAVGVKAKKF-NH2 [PS-PT2b],cleaved bond,[7],"Lys10-Ala11, 30 s"
same,fragment found,[8],"1–17 (FLSLIPKAIKAVGVKAK), >48 h"
